# From PubChem BioAssay (NCI)
# “And” between values parts separate entries of the source, which are not always exact repeats. Equal entries are not always repeated.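 Five concentrations, 48 hours, 96-well plates. At the GI50, growth is halved. TGI denotes the concentration required for complete inhibition of growth.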
# Columns and labels:
# Assay in all cases: NCI-60 cell line screen, 48 h
# 786-0 renal = system: 786-0 renal
# A498 renal = system: A498 renal
# A549 NSCLC = system: A549 NSCLC
# ACHN renal = system: ACHN renal
# CAKI-1 renal = system: CAKI-1 renal
# CCRF-CEM leukemia = system: CCRF-CEM leukemia
# COLO 205 colon = system: COLO 205 colon
# DLD-1 colon = system: DLD-1 colon
# DMS 114 small cell lung = system: DMS 114 small cell lung
# DMS 273 small cell lung = system: DMS 273 small cell lung
# EKVX NSCLC = system: EKVX NSCLC
# HCC-2998 colon = system: HCC-2998 colon
# HCT-116 colon = system: HCT-116 colon
# HCT-15 colon = system: HCT-15 colon
# HL-60(TB) leukemia = system: HL-60(TB) leukemia
# HOP-18 NSCLC = system: HOP-18 NSCLC
# HOP-62 NSCLC = system: HOP-62 NSCLC
# HT29 colon = system: HT29 colon
# IGROV1 ovarian = system: IGROV1 ovarian
# K-562 leukemia = system: K-562 leukemia
# KM12 colon = system: KM12 colon
# KM20L2 colon = system: KM20L2 colon
# LOX IMVI melanoma = system: LOX IMVI melanoma
# LXFL 529 NSCLC = system: LXFL 529 NSCLC
# M14 melanoma = system: M14 melanoma
# MALME-3M melanoma = system: MALME-3M melanoma
# MOLT-4 leukemia = system: MOLT-4 leukemia
# NCI-H226 lung = system: NCI-H226 lung
# NCI-H23 lung = system: NCI-H23 lung
# NCI-H460 lung = system: NCI-H460 lung
# NCI-H522 lung = system: NCI-H522 lung
# OVCAR-3 ovarian = system: OVCAR-3 ovarian
# OVCAR-4 ovarian = system: OVCAR-4 ovarian
# OVCAR-5 ovarian = system: OVCAR-5 ovarian
# OVCAR-8 ovarian = system: OVCAR-8 ovarian
# RPMI-8226 leukemia = system: RPMI-8226 leukemia
# RXF 393 renal = system: RXF 393 renal
# SF-268 CNS = system: SF-268 CNS
# SF-295 CNS = system: SF-295 CNS
# SF-539 CNS = system: SF-539 CNS
# SK-MEL-2 melanoma = system: SK-MEL-2 melanoma
# SK-MEL-28 melanoma = system: SK-MEL-28 melanoma
# SK-MEL-5 melanoma = system: SK-MEL-5 melanoma
# SK-OV-3 ovarian = system: SK-OV-3 ovarian
# SN12C renal = system: SN12C renal
# SNB-19 CNS = system: SNB-19 CNS
# SNB-75 CNS = system: SNB-75 CNS
# SNB-78 CNS = system: SNB-78 CNS
# SW-620 colon = system: SW-620 colon
# U251 CNS = system: U251 CNS
# UACC-257 melanoma = system: UACC-257 melanoma
# UACC-62 melanoma = system: UACC-62 melanoma
# UO-31 renal = system: UO-31 renal
# BT-549 breast = system: BT-549 breast
# DU-145 prostate = system: DU-145 prostate
# HOP-92 NSCLC = system: HOP-92 NSCLC
# HS 578T breast = system: HS 578T breast
# M19-MEL melanoma = system: M19-MEL melanoma
# MCF7 breast = system: MCF7 breast
# MDA-MB-231 breast = system: MDA-MB-231 breast
# MDA-MB-435 = system: MDA-MB-435
# MDA-N = system: MDA-N
# NCI/ADR-RES ovarian = system: NCI/ADR-RES ovarian
# PC-3 prostate = system: PC-3 prostate
# SR leukemia = system: SR leukemia
# T-47D breast = system: T-47D breast
# TK-10 renal = system: TK-10 renal
# XF 498 CNS = system: XF 498 CNS
smiles,measurement,setting,value
C\C=C/C=C/C=C/C(=O)O,TGI,786-0 renal,> 100 µM
same,TGI,A498 renal,> 100 µM
same,TGI,A549 NSCLC,> 100 µM
same,TGI,ACHN renal,> 100 µM
same,TGI,CAKI-1 renal,> 100 µM
same,TGI,CCRF-CEM leukemia,> 100 µM
same,TGI,COLO 205 colon,> 100 µM
same,TGI,DLD-1 colon,> 100 µM
same,TGI,DMS 114 small cell lung,> 100 µM
same,TGI,DMS 273 small cell lung,> 100 µM
same,TGI,EKVX NSCLC,> 100 µM
same,TGI,HCC-2998 colon,> 100 µM
same,TGI,HCT-116 colon,> 100 µM
same,TGI,HCT-15 colon,> 100 µM
same,TGI,HL-60(TB) leukemia,> 100000 nM
same,TGI,HOP-18 NSCLC,> 100 µM
same,TGI,HOP-62 NSCLC,> 100 µM
same,TGI,HT29 colon,> 100 µM
same,TGI,IGROV1 ovarian,> 100 µM
same,TGI,K-562 leukemia,> 100 µM
same,TGI,KM12 colon,> 100000 nM
same,TGI,KM20L2 colon,> 100 µM
same,TGI,LOX IMVI melanoma,> 100 µM
same,TGI,LXFL 529 NSCLC,> 100 µM
same,TGI,M14 melanoma,> 100 µM
same,TGI,MALME-3M melanoma,> 100 µM
same,TGI,MOLT-4 leukemia,> 100 µM
same,TGI,NCI-H226 lung,> 100000 nM
same,TGI,NCI-H23 lung,> 100000 nM
same,TGI,NCI-H460 lung,> 100 µM
same,TGI,NCI-H522 lung,> 100 µM
same,TGI,OVCAR-3 ovarian,> 100 µM
same,TGI,OVCAR-4 ovarian,> 100 µM
same,TGI,OVCAR-5 ovarian,> 100 µM
same,TGI,OVCAR-8 ovarian,> 100 µM
same,TGI,RPMI-8226 leukemia,> 100 µM
same,TGI,RXF 393 renal,> 100 µM
same,TGI,SF-268 CNS,> 100 µM
same,TGI,SF-295 CNS,> 100 µM
same,TGI,SF-539 CNS,> 100000 nM
same,TGI,SK-MEL-2 melanoma,> 100 µM
same,TGI,SK-MEL-28 melanoma,> 100 µM
same,TGI,SK-MEL-5 melanoma,> 100 µM
same,TGI,SK-OV-3 ovarian,> 100 µM
same,TGI,SN12C renal,> 100 µM
same,TGI,SNB-19 CNS,> 100 µM
same,TGI,SNB-75 CNS,> 100 µM
same,TGI,SNB-78 CNS,> 100 µM
same,TGI,SW-620 colon,> 100 µM
same,TGI,U251 CNS,> 100 µM
same,TGI,UACC-257 melanoma,> 100 µM
same,TGI,UACC-62 melanoma,> 100 µM
same,TGI,UO-31 renal,> 100 µM
COc1ccc(/C=C\c2cc(OC)c(OC)c(OC)c2)cc1OC(=O)C(N)CCC(=O)O (stereo not given),GI50,786-0 renal,7.06 nM
same,GI50,A549 NSCLC,3.98 nM and 10.8 nM
same,TGI,A549 NSCLC,28.4 µM and > 100 µM
same,TGI,BT-549 breast,2.99 nM
same,GI50,CCRF-CEM leukemia,0.576 nM
same,TGI,CCRF-CEM leukemia,> 100 µM
same,TGI,DLD-1 colon,> 100 µM
same,GI50,DU-145 prostate,0.364 nM and 0.444 nM and < 0.1 nM
same,TGI,EKVX NSCLC,> 100 µM
same,GI50,HCT-116 colon,0.425 nM
same,GI50,HL-60(TB) leukemia,0.17 nM
same,TGI,HL-60(TB) leukemia,0.422 nM and 2.75 nM
same,TGI,HOP-62 NSCLC,> 100 µM
same,GI50,HOP-92 NSCLC,2.98 nM and 0.791 nM
same,TGI,HOP-92 NSCLC,8.6 nM
same,GI50,HS 578T breast,0.788 nM and 0.46 nM
same,TGI,HT29 colon,> 37.9 µM and 46.2 µM
same,GI50,IGROV1 ovarian,4.15 nM and 0.539 nM and 0.824 nM
same,TGI,IGROV1 ovarian,> 100 µM
same,GI50,K-562 leukemia,0.311 nM and 0.0702 nM
same,GI50,KM12 colon,1.56 nM
same,TGI,KM12 colon,7.3 nM
same,GI50,KM20L2 colon,1510 nM
same,TGI,KM20L2 colon,9.55 µM
same,GI50,LOX IMVI melanoma,0.605 nM and 0.284 nM and < 0.1 nM
same,TGI,LOX IMVI melanoma,> 33.9 µM
same,GI50,M14 melanoma,0.565 nM
same,TGI,M19-MEL melanoma,67.3 µM
same,GI50,MALME-3M melanoma,1.36 nM
same,GI50,MCF7 breast,5.03 nM
same,TGI,MCF7 breast,> 100 µM
same,GI50,MDA-MB-231 breast,2.11 nM and 7.95 nM
same,GI50,MDA-MB-435,0.169 nM and 0.049 nM
same,TGI,MDA-MB-435,0.799 nM and 0.118 nM
same,GI50,MDA-N,0.204 nM
same,GI50,MOLT-4 leukemia,2.44 nM
same,TGI,NCI-H226 lung,41.5 nM
same,TGI,NCI-H23 lung,0.785 nM and 5.6 nM
same,GI50,NCI-H460 lung,1.12 nM
same,GI50,NCI-H522 lung,1.14 nM and 0.248 nM
same,GI50,NCI/ADR-RES ovarian,0.317 nM
same,TGI,NCI/ADR-RES ovarian,608 nM
same,GI50,OVCAR-3 ovarian,0.393 nM
same,TGI,OVCAR-4 ovarian,> 100 µM
same,TGI,OVCAR-5 ovarian,> 100 µM
same,GI50,OVCAR-8 ovarian,0.112 nM
same,GI50,PC-3 prostate,1.25 nM and 0.357 nM
same,GI50,RPMI-8226 leukemia,0.691 nM and < 31.6 nM
same,GI50,RXF 393 renal,0.0467 nM
same,GI50,SF-539 CNS,0.814 nM
same,TGI,SF-539 CNS,0.166 nM
same,GI50,SK-MEL-2 melanoma,0.0735 nM
same,TGI,SK-MEL-2 melanoma,> 100 µM
same,TGI,SK-MEL-28 melanoma,> 59 µM
same,TGI,SK-OV-3 ovarian,> 100 µM
same,TGI,SN12C renal,> 100 µM
same,GI50,SNB-19 CNS,0.828 nM and 0.281 nM and < 0.1 nM
same,TGI,SNB-19 CNS,> 100 µM
same,TGI,SNB-78 CNS,46.4 µM
same,GI50,SR leukemia,0.532 nM
same,GI50,SW-620 colon,0.594 nM
same,TGI,SW-620 colon,> 100 µM
same,GI50,T-47D breast,> 100 µM
same,TGI,T-47D breast,> 100 µM
same,TGI,TK-10 renal,> 100 µM
same,GI50,U251 CNS,0.543 nM and 0.132 nM
same,GI50,UACC-257 melanoma,0.603 nM
same,TGI,UACC-257 melanoma,22.8 µM
same,GI50,UACC-62 melanoma,0.597 nM
same,TGI,UACC-62 melanoma,> 100 µM
same,GI50,UO-31 renal,0.436 nM and < 0.1 nM
same,TGI,XF 498 CNS,49.1 nM
